According to US20130040898A1, “METHODS OF TREATMENT OF PATIENTS AT INCREASED RISK OF DEVELOPMENT OF ISCHEMIC EVENTS AND COMPOUNDS HEREOF” (priority 2010, published 2013):

Experiments:
[1] = depends on administration form and/or dosage; cited from earlier work
[2] = tested on: platelet aggregation in whole blood; test: Platelet aggregation in whole blood evaluated by Multiplate; assay type: cell-based
From the text: FIG. 2: MultiPlate continuously records platelet aggregation. The increase of impedance by the attachment of platelets onto the Multiplate sensors is transformed to arbitrary aggregation units (AU) and plotted against time. […] Hereby, the effect on the endothelium of PGI2 can be employed in conjunction with treatment with antithrombotic agents such as Aspirin (ASA), platelet ADP—and a platelet inhibitor, such as GPIIb/IIIa receptor antagonists without increased risk of bleeding in this high-risk population. The term “Mulitplate” refers to an applied platelet aggregometer/platelet function analyzer utilizing the analysis of whole blood. Whole blood is the physiological environment where platelet function takes place in vivo, and the use of whole blood for in-vitro testing eliminates the need for time-consuming centrifugation steps required for Born aggregation measurements. The use of a small amount of whole blood (0.3 ml per test) allows the differentiated assessment of platelet function without drawing large amounts of blood (as required for analysis of Born aggregation) and facilitates the analysis of blood from children and also in experimental settings.

[3] = tested on: thrombus formation; test: Thrombus formation evaluated by viscoelastical haemostatic assay, thrombelastography (TEG); assay type: cell-based
From the text: FIG. 1: Recording haemostatic activity using TEG assay. […] Hereby, the effect on the endothelium of PGI2 can be employed in conjunction with treatment with antithrombotic agents such as Aspirin (ASA), platelet ADP—and a platelet inhibitor, such as GPIIb/IIIa receptor antagonists without increased risk of bleeding in this high-risk population.

Row | Structure (SMILES) | half time [1] [min] | effect on platelet aggregation in whole blood as evaluated by MULTIPLATE [2] | effect on thrombus formation as evaluated by viscoelastical haemostatic assays such as thrombelastography (TEG) [3]
1 | CC#CCC(C)[C@H](O)/C=C/[C@@H]1[C@H]2c3cccc(CCCC(=O)O)c3O[C@H]2C[C@H]1O (mixture of isomers) [Beraprost] | 35 to 40 |  | 
2 | CC#CCC(C)[C@H](O)/C=C/[C@@H]1[C@H]2C/C(=C/CCCC(=O)O)C[C@H]2C[C@H]1O (some centres unmarked) [Iloprost] | 20 to 30 |  | 
3 | CSCCNc1nc(SCCC(F)(F)F)nc2c1ncn2[C@@H]1O[C@H](COP(=O)(O)OP(=O)(O)C(Cl)(Cl)P(=O)(O)O)[C@@H](O)[C@H]1O [cangrelor] | 3 to 5 |  | 
4 | CCCCC[C@H](O)/C=C/[C@@H]1[C@H]2C/C(=C/CCCC(=O)O)O[C@H]2C[C@H]1O [prostacyclin] |  | does not affect platelet aggregation | does not impair thrombus formation
